Usually pKd stands for −log10 of the Kd, conventionally taken in molar units.

The target of test [1] is Fibroblast growth factor 2 (Homo sapiens, UniProt P09038). The test can be described thus: Binding Assay. Conditions: pH 7.4. As for the experimental part: (§1) Human FGF-1 and FGF-2 were purchased from R&D Systems, Inc. and supplied as protein (ug) dissolved in bovine serum albumin (BSA, 50ug). Surface plasmon resonance (SPR) measurements were performed on a BIA-core 3000 from BIAcore, Uppsala, Sweden and operated by the BIAcore control software.

Test [2] addresses Fibroblast growth factor 1 (Homo sapiens, UniProt P05230). The test can be described thus: Binding Assay. Conditions: pH 7.4. The procedure:
as §1

The structures appear in SMILES notation. pKd: −log10 of the molar value.

Fibroblast growth factor 2, sequence (P09038 143-288 limits assumed): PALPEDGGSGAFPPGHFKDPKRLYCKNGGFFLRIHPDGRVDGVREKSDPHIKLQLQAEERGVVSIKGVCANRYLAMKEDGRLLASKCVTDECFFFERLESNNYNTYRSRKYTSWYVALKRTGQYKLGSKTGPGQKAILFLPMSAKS
Fibroblast growth factor 1, sequence (P05230 whole entry): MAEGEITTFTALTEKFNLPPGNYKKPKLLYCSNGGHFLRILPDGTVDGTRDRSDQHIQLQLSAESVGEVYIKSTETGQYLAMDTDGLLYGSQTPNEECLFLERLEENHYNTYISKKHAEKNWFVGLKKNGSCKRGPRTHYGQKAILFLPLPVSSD

In the case of `O=S(=O)(O)O[C@H]1[C@H](OS(=O)(=O)O)[C@@H](N(CCCCCCCCN([C@H]2C=C[C@@H](OS(=O)(=O)O)[C@@H](OS(=O)(=O)O)[C@@H]2OS(=O)(=O)O)[C@H]2C=C[C@@H](OS(=O)(=O)O)[C@@H](OS(=O)(=O)O)[C@@H]2OS(=O)(=O)O)[C@H]2C=C[C@@H](OS(=O)(=O)O)[C@@H](OS(=O)(=O)O)[C@@H]2OS(=O)(=O)O)C=C[C@H]1OS(=O)(=O)O` [Linked sulfated tetracyclitol, 8], the negative logarithm of the Kd (pKd) in test [1] was 6.97; in test [2], 7.39.
In the same order, the values of `O=S(=O)(O)O[C@H]1[C@H](OS(=O)(=O)O)[C@@H](N(CCN([C@H]2C=C[C@@H](OS(=O)(=O)O)[C@@H](OS(=O)(=O)O)[C@@H]2OS(=O)(=O)O)[C@H]2C=C[C@@H](OS(=O)(=O)O)[C@@H](OS(=O)(=O)O)[C@@H]2OS(=O)(=O)O)[C@H]2C=C[C@@H](OS(=O)(=O)O)[C@@H](OS(=O)(=O)O)[C@@H]2OS(=O)(=O)O)C=C[C@H]1OS(=O)(=O)O` [Linked sulfated tetracyclitol, 2] are 5.96 and 7.68.
The corresponding values for `O=S(=O)(O)O[C@H]1[C@H](OS(=O)(=O)O)[C@@H](N(CCCCCCN([C@H]2C=C[C@@H](OS(=O)(=O)O)[C@@H](OS(=O)(=O)O)[C@@H]2OS(=O)(=O)O)[C@H]2C=C[C@@H](OS(=O)(=O)O)[C@@H](OS(=O)(=O)O)[C@@H]2OS(=O)(=O)O)[C@H]2C=C[C@@H](OS(=O)(=O)O)[C@@H](OS(=O)(=O)O)[C@@H]2OS(=O)(=O)O)C=C[C@H]1OS(=O)(=O)O` [Linked sulfated tetracyclitol, 6] are 6.87 and 7.41.
In the same order, the values of `O=S(=O)(O)O[C@H]1[C@H](OS(=O)(=O)O)[C@@H](N(CCCCCN([C@H]2C=C[C@@H](OS(=O)(=O)O)[C@@H](OS(=O)(=O)O)[C@@H]2OS(=O)(=O)O)[C@H]2C=C[C@@H](OS(=O)(=O)O)[C@@H](OS(=O)(=O)O)[C@@H]2OS(=O)(=O)O)[C@H]2C=C[C@@H](OS(=O)(=O)O)[C@@H](OS(=O)(=O)O)[C@@H]2OS(=O)(=O)O)C=C[C@H]1OS(=O)(=O)O` [Linked sulfated tetracyclitol, 5] are 6.83 and 7.53.
As for `O=S(=O)(O)O[C@H]1[C@H](OS(=O)(=O)O)[C@@H](N(CCCCN([C@H]2C=C[C@@H](OS(=O)(=O)O)[C@@H](OS(=O)(=O)O)[C@@H]2OS(=O)(=O)O)[C@H]2C=C[C@@H](OS(=O)(=O)O)[C@@H](OS(=O)(=O)O)[C@@H]2OS(=O)(=O)O)[C@H]2C=C[C@@H](OS(=O)(=O)O)[C@@H](OS(=O)(=O)O)[C@@H]2OS(=O)(=O)O)C=C[C@H]1OS(=O)(=O)O` [Linked sulfated tetracyclitol, 4], the pKd in test [1] was 6.79; in test [2], 7.60.
In the same order, the values of `O=S(=O)(O)O[C@H]1[C@H](OS(=O)(=O)O)[C@@H](N(CCCN([C@H]2C=C[C@@H](OS(=O)(=O)O)[C@@H](OS(=O)(=O)O)[C@@H]2OS(=O)(=O)O)[C@H]2C=C[C@@H](OS(=O)(=O)O)[C@@H](OS(=O)(=O)O)[C@@H]2OS(=O)(=O)O)[C@H]2C=C[C@@H](OS(=O)(=O)O)[C@@H](OS(=O)(=O)O)[C@@H]2OS(=O)(=O)O)C=C[C@H]1OS(=O)(=O)O` [Linked sulfated tetracyclitol, 3] are 6.61 and 8.14.
As for `O=S(=O)(O)O[C@H]1[C@H](OS(=O)(=O)O)[C@@H](N(CCCCCCCCCCN([C@H]2C=C[C@@H](OS(=O)(=O)O)[C@@H](OS(=O)(=O)O)[C@@H]2OS(=O)(=O)O)[C@H]2C=C[C@@H](OS(=O)(=O)O)[C@@H](OS(=O)(=O)O)[C@@H]2OS(=O)(=O)O)[C@H]2C=C[C@@H](OS(=O)(=O)O)[C@@H](OS(=O)(=O)O)[C@@H]2OS(=O)(=O)O)C=C[C@H]1OS(=O)(=O)O` [Linked sulfated tetracyclitol, 10], the pKd in test [1] is 6.35; in test [2], 6.94.
In the same order, the values of `O=S(=O)(O)O[C@H]1[C@H](OS(=O)(=O)O)[C@@H](N(CCCCCCCCCN([C@H]2C=C[C@@H](OS(=O)(=O)O)[C@@H](OS(=O)(=O)O)[C@@H]2OS(=O)(=O)O)[C@H]2C=C[C@@H](OS(=O)(=O)O)[C@@H](OS(=O)(=O)O)[C@@H]2OS(=O)(=O)O)[C@H]2C=C[C@@H](OS(=O)(=O)O)[C@@H](OS(=O)(=O)O)[C@@H]2OS(=O)(=O)O)C=C[C@H]1OS(=O)(=O)O` [Linked sulfated tetracyclitol, 9] are 6.71 and 6.92.
In the same order, the values of `O=S(=O)(O)O[C@H]1[C@H](OS(=O)(=O)O)[C@@H](N(CCCCCCCN([C@H]2C=C[C@@H](OS(=O)(=O)O)[C@@H](OS(=O)(=O)O)[C@@H]2OS(=O)(=O)O)[C@H]2C=C[C@@H](OS(=O)(=O)O)[C@@H](OS(=O)(=O)O)[C@@H]2OS(=O)(=O)O)[C@H]2C=C[C@@H](OS(=O)(=O)O)[C@@H](OS(=O)(=O)O)[C@@H]2OS(=O)(=O)O)C=C[C@H]1OS(=O)(=O)O` [Linked sulfated tetracyclitol, 7] are 7.05 and 8.10.

Values taken from BindingDB's records for doi:10.1002/cbic.200500089 (Progen Industries, 2005).
